{"source": "patent US6472563B1", "about": "“Formoterol tartrate process and polymorph” (Sepracor Inc., priority 2001, dated 2002)", "key": {"[1]": {"settings": "compared to other salts of R,R-formoterol; cited from earlier work"}, "[2]": {"experiment": "Dissolution studies: 17 wt % slurry in 50% aqueous isopropyl alcohol stirred with warming", "format": "physicochemical", "settings": "listed as form A", "procedure": "Dissolution studies were done on each polymorph. A 17 wt % slurry of the respective solid in 50% aqueous isopropyl alcohol was stirred with warming, and the temperature of dissolution was recorded."}, "[3]": {"settings": "factor; cited from earlier work"}}}
{"smiles": "COc1ccc(C[C@@H](C)NC[C@H](O)c2ccc(O)c(NC=O)c2)cc1.O=C(O)C(O)C(O)C(=O)O", "note": "[L-(+)-tartrate salt of R,R-formoterol, (R,R)-formoterol L-tartrate]", "values": [{"measurement": "hygroscopicity", "setting": "[1]", "result": "non-hygroscopic"}]}
{"smiles": "COc1ccc(C[C@@H](C)NC[C@H](O)c2ccc(O)c(NC=O)c2)cc1.O=C(O)C(O)C(O)C(=O)O", "note": "[Polymorph A, (R,R)-formoterol L-tartrate]", "values": [{"measurement": "temperature of dissolution", "setting": "[2]", "result": "65-70 °C"}]}
{"smiles": "CCCCCCCCCCCCCCCC(=O)OC[C@@H](NC(=O)C(Cl)Cl)[C@H](O)c1ccc([N+](=O)[O-])cc1", "note": "[Chloramphenicol-3-palmitate]", "values": [{"measurement": "difference in bio-activity between form A and form B", "setting": "[3]", "result": "eight"}]}
